Columns and labels:
[1] = test system: DIO mice; assay: Acute administration in DIO mice in home cages: food intake and plasma BHB-Phe; assay type: in vivo, mouse; details: 50 mg/kg IP
Description: General animal information. Animal experiments were performed according to procedure approved by the Stanford University Administrative Panel on Laboratory Animal Care (APLAC). Mice were maintained in 12-hr light-dark cycles at 22° C. and ~50% relative humidity and fed a standard irradiated rodent chow diet. Where indicated, high-fat diet (D12492, Research Diets 60% kcal from fat) and ketogenic diet (D06040601, Research Diets, 80% kcal fat/15% kcal protein/5% kcal carbohydrate) was used. Male C57BL/6J (stock no. 000664) and male C57BL/6J DIO mice (stock no. 380050) were purchased from Jackson Laboratory. Male C57BL/6NCrl (stock no. 027) mice were purchased from Charles River Laboratory. Whole body CNDP2-KO mice (catalog number, C57BL/6NCrl-Cndp2em1 (IMPC) Mbp/Mmucd, RRID: MMRRC_043492-UCD) were obtained from the Mutant Mouse Regional Resource Center, a NCRR-NIH funded strain repository. For in vivo injection of mice with metabolites, compounds were dissolved in 18:1:1 (by volume) of saline/Kolliphor EL (Sigma Aldrich)/DMSO. Compounds were administered to mice daily via intraperitoneal injections at 5 μl/g body weight at the indicated doses. For all injection experiments, mice were mock injected with the vehicle for 3-5 days until body weights have stabilized. Sample sizes were determined on the basis of previous experiments using similar methodologies. For metabolite administration experiments, mice were randomly assigned to treatment groups. Experimenters were not blinded to groups.
Preparation of plasma samples for LC-MS analysis. Plasma was collected from mice via a submandibular bleed into lithium heparin tubes (BD, 365985) and immediately transferred onto ice. […]
Targeted metabolomics. […] Quantification of the endogenous metabolite concentrations were performed by generating a standard curve with known concentrations of each metabolite. Metabolite standards were analyzed alongside the plasma samples using the same targeted triple quadrupole LC/MS method. […] The dilution of the plasma during the sample preparation was also taken into account for the quantification.

[2] = test system: brain lysate proteins; assay: Competition of X-Phe photoprobe-labeled brain proteins, quantitative shotgun proteomics; assay type: binding, mouse; details: 100 μM photoprobe; 50-fold excess competitor
Description: Shotgun proteomics of X-Phe photoprobe-labeled proteins. Brains from wild type C57BL/6J mice were harvested and homogenized using a bead blaster in PBS. Brain homogenate was centrifuged (15,000 rpm, 10 min) to yield the cytosolic supernatant and membrane pellet fractions. The cytosolic fraction was transferred to a new eppie and centrifuged again (15,000 rpm, 10 min). This process was repeated 4 times until no pellet was present after centrifugation. The membrane pellet was washed with 1 ml PBS and centrifuged (15,000 rpm, 10 min); this step was also repeated 4 times to remove any cytosolic protein contamination. After the centrifugation steps, the membrane pellet was re-suspended in PBS and sonicated. For competition experiments, brain lysate was normalized to 2 mg/ml in PBS and incubated with competitors at the indicated concentrations at room temperature for 30 minutes. 100 μM of the photoprobe was added and the reactions incubated on ice for 10 minutes protected from light. Reactions were then put under UV for 1 min on a UV Stratalinker. A biotin click reaction was performed by adding the following reagents to the indicated final concentrations: […], 1 mM CuSO4, 1 mM TCEP (freshly prepared), 30 μM Biotin-N3. Reactions were allowed to proceed for 1 hour at room temp, protected from light, and while rotating. The following prep was adapted from Niphakis et al. 2015. To each reaction, the following solvents were added in order, 4 ml cold methanol, 1 ml cold chloroform, 2 ml cold PBS. The mixture was vortexed well and centrifuged (4,600×g, 15 min, 4° C.). After centrifugation the organic and aqueous layers were removed without disruption of the protein disc. The protein disc was washed with a cold 1:1 mixture of methanol:chloroform 3 times. After the final wash, the protein disc was re-suspended in a 4:1 mixture of methanol:chloroform and sonicated. The insoluble protein was pelleted by centrifugation (4,600×g, 15 min, 4 C) and the pellet re-suspended in freshly prepared 500 μl of 6 M urea in PBS. 20 μl of 10% (w/v) SDS was added to the solution. The solution was then warmed in a 37 C water bath for 10 min to help dissolve poorly soluble protein. A streptavidin pulldown was the performed on the protein mixture. 250 μl of streptavidin beads were washed 3 times with 1 ml PBS. Protein samples were diluted with 5.5 ml of 0.25% SDS in PBS and incubated with streptavidin beads for 1.5 hr at room temperature. Following incubation, beads were washed 5 times each with 0.25% SDS in PBS, then PBS, then lastly with ultra-pure water Steptavidin beads were suspended in 150 μL resuspension buffer (1 M urea, 50 mM Tris-HCl, pH 8). Proteins were digested with 3 μg of trypsin for 4 hours. Digested peptides were reduced with 5 mM TCEP for 10 minutes. Cys residues were alkylated using 15 mM iodoacetimide (IAA) for 20 minutes. Finally, excess IAA was quenched with 10 mM DTT. Acidified digested peptides were desalted over C18 StageTips [PMID: 12585499]. Peptides were then eluted with 80% acetonitrile, 0.1% TFA and dried in a speedvac. Dried samples were reconstituted with 200 mM EPPS buffer, pH 8.0, and labelled with TMT reagents (Thermo Fisher Scientific). Following incubation at room temperature for 2 h, the reactions were quenched with hydroxylamine to a final concentration of 0.5% (v/v). […]

time to return of plasma level to largely baseline values ([1]; single): ≤ 3 h
SMILES: CC(O)CC(=O)N[C@@H](Cc1ccccc1)C(=O)O (stereo partly shown) [BHB-Phe, N-betahydroxybutyryl-phenylalanine]
food intake after single administration (home cages) ([1]; 3 h and 1 h): suppressed food intake at a 3 h, but not 1 h time point
competition of X-Phe photoprobe-labeled proteins [2]: > 80%
number of brain proteins crosslinked by X-Phe photoprobe and >80% competed by Keto-Phe [2]: 32 proteins
